Laboratory results taken from PMC4541410 (Scientific Reports, 2015).
Where a SMILES comes first, the peptide text is derived from it.

Key:
92UG029 (A) = conditions: read-out: IC50 (nM), infection by primary isolate 92UG029 (A); primary HIV-1 isolate, subtype A
[1] = system: T20-resistant HIV-1 variant V38A/N42T; format: cell-based
[2] = system: HIV-1IIIB (subtype B, X4); conditions: read-out: IC50, inhibition of infection by HIV-1IIIB; MT-2 cells, 100 TCID50, p24 ELISA day 4; triplicate, repeated twice
Description: (§1) Then, the culture supernatants were changed to fresh media. On the fourth day post-infection, culture supernatants were collected for detection of p24 antigen by ELISA. […] Then, the culture supernatants were changed to fresh media. On the fourth day post-infection, the culture supernatants were discarded and fresh media were complemented again. The supernatants were collected on the seventh day post-infection and tested for p24 antigen by ELISA as previously described. The percent inhibition of p24 production was calculated.

HIV-1Bal (subtype B, R5) = conditions: read-out: IC50, inhibition of infection by HIV-1Bal; M7 cells, 100 TCID50, p24 ELISA day 7; triplicate, repeated twice
Description: as §1

[3] = system: preexisting antibodies in sera from HIV-1-infected patients; assay: Sandwich ELISA: cross-reactivity of peptides with preexisting antibodies in HIV-1-infected patients; format: binding, human; conditions: peptide coated at 10 μg/ml, serially diluted sera, 37 °C 1 h, A450
Procedure: A sandwich ELISA was conducted to determine the cross-reactivity of the peptides with the preexisting antibodies in HIV-1-infected patients. […] The wells were then blocked with 1% gelatin, followed by addition of 50 μl of serially diluted sera from HIV-1-infected patients and incubation at 37 °C for 1 h. Then, HRP-labeled goat-anti-human IgG (Abcam, UK) and TMB were added sequentially. A450 was determined with an ELISA reader (Ultra 384, Tecan).

proteinase K = assay: in vitro; conditions: proteinase K in PBS, pH 7.2
Procedure: Chromatographic analyses were performed using an ODS-C8 column (5 μm, 100 mm × 2.0 mm ID) kept at ambient temperature. The mobile phase was composed of acetonitrile-water-formic acid in the ratio of 50:50:0.1 (v/v/v) at a flow rate of 0.3 mL/min. The sample injection volume was 10 μL. Acetonitrile was HPLC grade and other chemical reagents and solvents were analytical grade. A Thermo TSQ Quantum Discovery MAX triple-quadruple tandem mass spectrometer equipped with ESI source (San Jose, CA) and Surveyor LC pump were used for LC-MS analysis. Data acquisition and data processing were performed by using Xcalibur software and LCQuan 2.0 data analysis program (Thermo Finnigan), respectively. Optimized MS parameters were as below: 4800 V spray voltage, 40.0 psi sheath gas pressure, 1.0 psi auxiliary valve flow and 300 °C of capillary temperature. When running collision-induced dissociation (CID), the pressure was set to 1.5 mTorr.
The peptides (10 μg/mL) were prepared in PBS pH 7.2 containing 20 ng/ml proteinase K. The resulting mixture were incubated at 37 °C in a water bath and taken out at different time intervals (0, 5, 15, 30, 60, 120 minutes), followed by quenching the samples with ethyl alcohol and quantitating the peptides by LC-MS analysis as described above.

[4] = system: T20-resistant HIV-1 variant V38E/N42S; format: cell-based

Q: Which results are given for `CC[C@H](C)[C@H](NC(=O)[C@H](CO)NC(=O)[C@H](CCC(=O)O)NC(=O)[C@H](CCC(=O)O)NC(=O)[C@H](CCC(N)=O)NC(=O)[C@H](CCCCN)NC(=O)[C@H](CCCCN)NC(=O)[C@@H](NC(=O)[C@H](CCC(N)=O)NC(=O)[C@H](CCC(=O)O)NC(=O)[C@H](CCC(=O)O)NC(=O)[C@@H](NC(=O)[C@H](CCCCN)NC(=O)[C@H](CCCCN)NC(=O)[C@@H](NC(=O)[C@H](CC(C)C)NC(=O)[C@H](CCC(=O)O)NC(=O)[C@H](CCC(=O)O)NC(=O)[C@H](CO)NC(=O)[C@H](CCCCN)NC(=O)[C@H](CCCCN)NC(=O)[C@@H](NC(=O)[C@H](CC(C)C)NC(=O)[C@H](CCC(=O)O)NC(=O)[C@H](CCC(=O)O)NC(=O)[C@@H](NC(=O)[C@H](CCCCN)NC(=O)[C@H](CCCCN)NC(=O)[C@H](CC(=O)O)NC(=O)[C@H](Cc1c[nH]c2ccccc12)NC(=O)[C@H](CCC(=O)O)NC(=O)[C@H](CCC(=O)O)NC(=O)[C@H](Cc1c[nH]c2ccccc12)NC(=O)[C@@H](NC(=O)[C@H](CCSC)NC(C)=O)[C@@H](C)O)[C@@H](C)CC)[C@@H](C)CC)[C@@H](C)CC)[C@@H](C)CC)[C@@H](C)CC)C(=O)N[C@@H](CCCCN)C(=O)N[C@@H](CCCCN)C(N)=O` [AP3] (Ac-MTWEEWDKKIEELIKKSEELIKKIEEQIKKQEESIKK-NH2)?
A: IC50 (92UG029 (A)): 7.1 ± 1.7 nM; IC50 [1]: 90 ± 21.5 nM; IC50 [2]: 3.06 nM; IC50 (HIV-1Bal (subtype B, R5)): 15.1 nM; reactivity with antibodies in sera from five HIV-1-infected patients [3]: none of the three artificial peptides AP1, AP2 and AP3 was recognized; remaining at 2 h, 10 μg/mL (proteinase K): 100%; IC50 [4]: 42.4 ± 11.6 nM
